From publication PMC7582507, “SARs for the Antiparasitic Plant Metabolite Pulchrol. Part 2: B- and C-Ring Substituents” (Molecules, 2020)
Read-outs that look alike come from different tables or passages of the source.

Legend:
[1] = system: Trypanosoma cruzi epimastigotes; test: Trypanocidal activity against T. cruzi epimastigotes (XTT, 72 h); format: cell-based; conditions: for IC50: 72 h; for selectivity ratio at 72 h: mouse (RAW cells), Trypanosoma cruzi (parasite), RAW 264.7 macrophage cells versus T. cruzi epimastigotes, read-out: T. cruzi SI (selectivity index, cytotoxicity/anti-protozoal activity); for selectivity ratio at 72 h / T. cruzi SI (selectivity index, cytotoxicity/anti-protozoal activity): IC50 RAW cells / IC50 T. cruzi
Procedure: Cultures of Trypanosoma cruzi (epimastigotes, donated by the Parasitology Department of INLASA, Tc-INLASA, city, country), were maintained in medium LIT (pH 7.2), supplemented with 10% FBS and incubated at 26 °C. Medium changes were made every 72 h to maintain a viable parasitic population. Trypanocidal activity was determined according to Muelas-Serrano with some modifications. Samples were dissolved in DMSO (maximum final concentration 1%) at 10 mg/mL. Epimastigotes in logarithmic phase of growth, at a concentration of 3 × 10^6 parasites/mL, were distributed (100 μL/well) in 96-well flat bottom microtiter plates. Samples at different concentrations (3.1–100 μg/mL) were added (100 μL). Benznidazole (3.1–100 μg/mL) was used as the control drug. Assays were performed in triplicates. The microwell plates were incubated for 72 h at 26 °C. After incubation, a solution of XTT (1 mg/mL) in PBS (pH 7.0 at 37 °C) with PMS (0.06 mg/mL) was added (50 μL/well) and incubated for 4 h at 26 °C. The optical density of each well was measured and the IC50 values were calculated. A negative control experiments with only 1% DMSO was carried out, showing that the solvent by itself has no antiparasitic activity.

[2] = Cytotoxicity on RAW cells (resazurin, 72 h); conditions: mouse
[3] = system: Leishmania amazonensis promastigotes; test: Leishmanicidal activity against L. amazonensis promastigotes (XTT, 72 h); conditions: for IC50: 72 h; for selectivity ratio at 72 h: mouse (RAW cells), Leishmania amazonensis (parasite), L. amazoniensis SI (selectivity index, cytotoxicity/anti-protozoal activity); for selectivity ratio at 72 h / L. amazoniensis SI (selectivity index, cytotoxicity/anti-protozoal activity): IC50 RAW cells / IC50 L. amazonensis
[4] = system: Leishmania braziliensis promastigotes; test: Leishmanicidal activity against L. braziliensis promastigotes (XTT, 72 h); conditions: for IC50: 72 h; for selectivity ratio at 72 h: mouse (RAW cells), Leishmania braziliensis (parasite), L. brasiliensis SI (selectivity index, cytotoxicity/anti-protozoal activity); for selectivity ratio at 72 h / L. brasiliensis SI (selectivity index, cytotoxicity/anti-protozoal activity): IC50 RAW cells / IC50 L. braziliensis
[5] = system: Raw 264.7 murine macrophage cell line; test: Cytotoxicity on RAW cells (resazurin, 72 h); conditions: read-out: Cytotoxicity IC50; RAW cells, 72 h, average ± SD of at least three experiments
[6] = system: CB2 receptor; conditions: cited from earlier work
[7] = system: Leishmania amazonensis promastigotes; conditions: stated as previously investigated and reported, read-out: IC50 against L. amazonesis promastigotes; cited from earlier work
[8] = epimastigotes, average ± SD of at least three experiments, read-out: T. cruzi IC50
[9] = RAW 264.7 macrophage cells, Cytotoxicity IC50, RAW cells, 72 h, average ± SD of at least three experiments
[10] = Leishmania amazonensis, read-out: L. amazoniensis IC50, promastigotes, 72 h, average ± SD of at least three experiments
[11] = read-out: L. brasiliensis IC50, promastigotes, 72 h, average ± SD of at least three experiments
[12] = Trypanosoma cruzi, epimastigotes, average ± SD of at least three experiments, read-out: T. cruzi IC50
[13] = read-out: L. amazoniensis IC50, promastigotes, average ± SD of at least three experiments
[14] = read-out: L. brasiliensis IC50, promastigotes, average ± SD of at least three experiments

| SMILES | selectivity ratio at 72 h [1] | IC50 at 72 h [2, 9] [µM] | IC50 [3, 10] [µM] | selectivity ratio at 72 h [3] | IC50 [4, 11] [µM] | selectivity ratio at 72 h [4] | IC50 [1, 12] [µM] | IC50 at 72 h [2] [µM] | further results |
| --- | --- | --- | --- | --- | --- | --- | --- | --- | --- |
| COc1ccc2c(c1)-c1cc(CO)ccc1CO2 [8a, (2-Methoxy-6H-benzo[c]chromen-9-yl)methanol] | 1.3 | 82.6 ± 9.5 | 132 ± 29.3 | 0.6 | 248 ± 54.1 | 0.3 |  |  | IC50 ([1]; Trypanosoma cruzi, read-out: T. cruzi IC50, epimastigotes, 72 h, average ± SD of at least three experiments): 66.6 µM; IC50 [1, 8]: 66 ± 18.2 µM |
| COc1ccc2c(c1)-c1cc(CO)ccc1C(C)O2 (stereo not shown) [8b, (2-Methoxy-6-methyl-6H-benzo[c]chromen-9-yl)methanol] | 1 | 37.1 ± 3.9 |  |  | 156 ± 23.4 | 0.2 | 35.9 ± 11.7 |  | L. amazoniensis SI (selectivity index, cytotoxicity/anti-protozoal activity) [3]: 0.2; IC50 [3, 13]: 156 ± 58.5 µM |
| COc1ccc2c(c1)-c1cc(CO)ccc1C(C)O2 (stereo not shown) [8c, (2-Methoxy-6-methyl-6H-benzo[c]chromen-9-yl)methanol] |  |  |  |  |  |  |  |  | T. cruzi SI (selectivity index, cytotoxicity/anti-protozoal activity) [1]: 0.8; IC50 [1, 8]: 67.1 ± 31.2 µM; IC50 [5]: 52.7 ± 9 µM; L. amazoniensis SI (selectivity index, cytotoxicity/anti-protozoal activity) [3]: 0.7; IC50 [3, 13]: 71.8 ± 12.5 µM; L. brasiliensis SI (selectivity index, cytotoxicity/anti-protozoal activity) [4]: 0.4; IC50 [4, 14]: 129 ± 24.6 µM |
| CCC1Oc2ccc(OC)cc2-c2cc(CO)ccc21 (stereo not shown) [8d, (6-Ethyl-2-methoxy-6H-benzo[c]chromen-9-yl)methanol] | 0.6 | 30 ± 3.7 | 71.4 ± 1.1 | 0.4 | 45.9 ± 20.3 | 0.7 | 51.8 ± 9.2 |  |  |
| CCC1Oc2ccc(OC)cc2-c2cc(CO)ccc21 (stereo not shown) [8e, (6-Ethyl-2-methoxy-6H-benzo[c]chromen-9-yl)methanol] |  |  |  |  |  |  |  |  | T. cruzi SI (selectivity index, cytotoxicity/anti-protozoal activity) [1]: 1.2; IC50 [1, 8]: 37 ± 0.7 µM; IC50 [5]: 44.4 ± 11.5 µM; L. amazoniensis SI (selectivity index, cytotoxicity/anti-protozoal activity) [3]: 0.6; IC50 [3, 13]: 70.3 ± 3.7 µM; L. brasiliensis SI (selectivity index, cytotoxicity/anti-protozoal activity) [4]: 1.0; IC50 [4, 14]: 45.1 ± 19.2 µM |
| CCC1(CC)Oc2ccc(OC)cc2-c2cc(CO)ccc21 [8f, (6,6-Diethyl-2-methoxy-6H-benzo[c]chromen-9-yl)methanol] | 4.2 | 43.6 ± 15.1 | 36.9 ± 3.4 | 1.2 | 46.9 ± 5 | 0.9 | 10.4 ± 0.3 |  |  |
| CCCCC1(CCCC)Oc2ccc(OC)cc2-c2cc(CO)ccc21 [8g, (6,6-Dibutyl-2-methoxy-6H-benzo[c]chromen-9-yl)methanol] | 1.5 |  | 25.4 ± 1.1 | 1.4 | 29.3 ± 1.4 | 1.2 | 22.8 ± 8.5 | 35.3 ± 17.5 |  |
| COc1ccc2c(c1)OC(C)(C)c1ccc(CO)cc1-2 [10a, (3-Methoxy-6,6-dimethyl-6H-benzo[c]chromen-9-yl)methanol] | 0.7 |  | 66.6 ± 7.4 | 0.9 | 37.4 ± 1.1 | 1.6 | 88.4 ± 12.2 | 59.2 ± 25.9 |  |
| COc1cccc2c1-c1cc(CO)ccc1C(C)(C)O2 [10b, (1-Methoxy-6,6-dimethyl-6H-benzo[c]chromen-9-yl)methanol] | 0.5 |  | 180 ± 21.9 | 0.3 | 48.1 ± 18.5 | 1 | 92.5 ± 14.8 | 48.1 ± 18.5 |  |
| Cc1ccc2c(c1)-c1cc(CO)ccc1C(C)(C)O2 [10c, (2,6,6-Trimethyl-6H-benzo[c]chromen-9-yl)methanol] | 1.3 | 39.3 ± 1.6 | 64.9 ± 12.6 | 0.6 | 39.3 ± 2.4 | 1 | 31.5 ± 7.9 |  |  |
| Cc1ccc2c(c1)OC(C)(C)c1ccc(CO)cc1-2 [10d, (3,6,6-Trimethyl-6H-benzo[c]chromen-9-yl)methanol] | 1.1 |  | 51.9 ± 13.8 | 0.7 | 40.1 ± 8.3 | 0.9 | 33 ± 3.9 | 35.4 ± 7.9 |  |
| CC1(C)Oc2ccccc2-c2cc(CO)ccc21 [10e, (6,6-Dimethyl-6H-benzo[c]chromen-9-yl)methanol] | 1.2 | 62.4 ± 6.2 | 91.6 ± 5.4 | 0.7 | 74.9 ± 16.6 | 0.8 | 50.8 ± 6.2 |  |  |
| CC(C)c1ccc2c(c1)-c1cc(CO)ccc1C(C)(C)O2 [10f, (2-Isopropyl-6,6-dimethyl-6H-benzo[c]chromen-9-yl)methanol] | 0.7 |  | 15.6 ± 2.8 | 0.6 | 18.1 ± 0.7 | 0.5 | 12.4 ± 3.5 | 8.9 ± 3.5 |  |
| CC(C)c1ccc2c(c1)OC(C)(C)c1ccc(CO)cc1-2 [10g, (3-Isopropyl-6,6-dimethyl-6H-benzo[c]chromen-9-yl)methanol] | 1.6 |  | 21.2 ± 7.1 | 1 | 19.1 ± 1.1 | 1.1 | 14.2 ± 4.2 | 22 ± 7.1 |  |
| CCCCCc1ccc2c(c1)-c1cc(CO)ccc1C(C)(C)O2 [10h, (6,6-Dimethyl-2-pentyl-6H-benzo[c]chromen-9-yl)methanol] | 2 |  | 16.8 ± 1.9 | 0.8 | 16.4 ± 0.3 | 0.8 | 6.4 ± 0.3 | 12.9 ± 3.2 |  |
| O=C(Cn1ccnc1[N+](=O)[O-])NCc1ccccc1 [Benznidazole, reference compound] |  |  |  |  |  |  | 19.2 ± 7.7 |  | T. cruzi SI (selectivity index, cytotoxicity/anti-protozoal activity) [1]: 3.9; IC50 [5]: 74.7 ± 9.1 µM |
| CCCCCc1cc(O)c2c(c1)OC(C)(C)c1ccc(C)cc1-2 [Cannabinol] |  |  |  |  |  |  |  |  | affinity for the CB2 receptor compared to THC [6]: 10 times |
| CCCCCCCCCCCCCCCCOP(=O)([O-])OCC[N+](C)(C)C [Miltefosine, reference compound] |  |  |  |  | 13 ± 1.2 |  |  |  |  |
| COc1ccc2c(c1)-c1cc(CO)ccc1C(C)(C)O2 [compound 1, pulchrol] |  |  |  |  | 59.2 ± 11.8 |  | 18.5 ± 9.6 |  | T. cruzi SI (selectivity index, cytotoxicity/anti-protozoal activity) [1]: 1.7; IC50 [7]: 77.7 µM; IC50 [5]: 30.7 ± 1.1 µM; L. amazoniensis SI (selectivity index, cytotoxicity/anti-protozoal activity) [3]: 0.4; L. brasiliensis SI (selectivity index, cytotoxicity/anti-protozoal activity) [4]: 0.5 |
